Reference: paper PMC7726675 (Data in Brief, 2020)

Tested on: AAR^CAp
Details: read-out: KM^AcAcCoA; NADH fixed at 300 µM; 50 mM Tris pH 8, 5 mM MgCl2, 5 mM NaCl; 30 °C

In the case of `CC(=O)CC(=O)SCCNC(=O)CCNC(=O)[C@H](O)C(C)(C)COP(=O)(O)OP(=O)(O)OC[C@H]1O[C@@H](n2cnc3c(N)ncnc32)[C@H](O)[C@@H]1OP(=O)(O)O` [acetoacetyl-CoA], the Km is reported as 56.7 µM.
